IC50 data for 27 compounds are collected here from PubChem BioAssay AID624167 (Sanford-Burnham Center for Chemical Genomics, 2012).

The source made the active and inactive calls.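 How the source made its calls: active means mean IC50 for reducing PEG3 promoter reporter signal at or below a set limit, with IC50 above the limit in both counter screens; inactive means the rest, including counter screen hits.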

Test [1] deals with PEG-3 (UniProt Q6IN02). The test is described as follows: Peg3 promoter luciferase inhibitors, potency, dose response, cell-based, HeLa, CREF/GAPDH counter-screen panel (AID 624167). The conditions noted are these: HeLa PEG-Prom luciferase reporter, overnight, CREF/GAPDH counter-screens, mean of runs. Background: Counterscreens check selectivity or assay interference.
In test [2] the test system is PEG-3. Described as above. The conditions noted are these: HeLa PEG-Prom luciferase reporter, overnight, CREF/GAPDH counter-screens. Background: A reporter such as luciferase makes a cellular process visible.
Setting [3] is: run 1, dose range 1, individual replicate IC50 per panel.
Setting [4] is: run 2, dose range 1, individual replicate IC50 per panel.

Sequence of PEG-3 (UniProt Q6IN02) (Q6IN02 whole entry, looked up): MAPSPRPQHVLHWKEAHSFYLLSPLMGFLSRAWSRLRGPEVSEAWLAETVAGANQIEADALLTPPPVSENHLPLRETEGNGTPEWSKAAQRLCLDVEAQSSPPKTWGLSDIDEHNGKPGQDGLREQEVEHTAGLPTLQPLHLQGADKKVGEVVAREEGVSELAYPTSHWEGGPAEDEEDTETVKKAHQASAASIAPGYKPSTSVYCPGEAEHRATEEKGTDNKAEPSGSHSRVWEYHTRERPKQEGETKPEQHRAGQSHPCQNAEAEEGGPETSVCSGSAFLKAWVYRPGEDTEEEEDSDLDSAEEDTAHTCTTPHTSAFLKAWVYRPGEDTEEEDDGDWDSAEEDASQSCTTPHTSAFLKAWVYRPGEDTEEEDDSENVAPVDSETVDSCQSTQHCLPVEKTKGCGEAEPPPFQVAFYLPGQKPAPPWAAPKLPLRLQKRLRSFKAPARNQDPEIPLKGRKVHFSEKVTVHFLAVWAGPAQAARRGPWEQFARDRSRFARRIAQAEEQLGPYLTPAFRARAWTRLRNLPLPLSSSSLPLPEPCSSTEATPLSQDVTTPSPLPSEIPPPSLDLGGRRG

The term IC50 denotes the point on the concentration scale where inhibition reaches its midpoint. Turning to `CNCC[C@@H](Oc1ccc(C(F)(F)F)cc1)c1ccccc1`, on PEG-3 [1], the IC50 entry is “inactive”. Also, the IC50 in the test with PEG-3 [2] (setting [3]) amounted to 27 µM; in the test with PEG-3 [2] (setting [4]), 53.2 µM.
Take `COc1ccc(-c2ccc3[nH]c4c(c3c2)CCN2C[C@@H]([C@H](C)O)[C@@H](N(C)C(=O)Nc3cc(Cl)cc(Cl)c3)C[C@@H]42)cc1`: the IC50 result at PEG-3 [1] was “inactive”. The results for the IC50 in the test on PEG-3 [2] (setting [3]) and in the test with PEG-3 [2] (setting [4]) were 43.8 µM and 30.8 µM, respectively.
As for `CCC1CCCCN1S(=O)(=O)c1ccc(C(=O)N(CCCN(C)C)c2nc3cc4c(cc3s2)OCO4)cc1` (stereo unspecified), the IC50 entry at PEG-3 [1] is “inactive”. Also, the IC50 amounted to 21.9 µM in the test on PEG-3 [2] (setting [3]) and 49.9 µM with PEG-3 [2] (setting [4]).
For `CCCc1nc2oc3c(NCCCN(C)C)ncnc3c2c2c1CCCC2`, the IC50 at PEG-3 [1] was 14.7 µM; in the test on PEG-3 [2] (setting [3]), 19.5 µM; in the test on PEG-3 [2] (setting [4]), 9.84 µM.
The like results for `CCN(CC)CCCCNc1ncc2cc(-c3cc(OC)cc(OC)c3)c(NC(=O)NC(C)(C)C)nc2n1` were, in that order, “inactive”, 21 µM and 20.9 µM.
The like results for `CC(C)CC(N)c1csc(NC(=O)Nc2ccccc2C(C)(C)C)n1` (stereo unspecified) were, in that order, “inactive”, 22.7 µM and 18.2 µM.
Take `CC(=O)Nc1ccc(Nc2nc(C)c([N+](=O)[O-])c(Nc3ccccc3)n2)cc1`: on PEG-3 [1], the IC50 entry was “inactive”. In addition, the figures for the IC50 in the test on PEG-3 [2] (setting [3]) and in the test with PEG-3 [2] (setting [4]) were 22.6 µM and more than 100 µM, respectively.
On to `Cc1ccc(F)cc1-c1cc2nc(NCCCN(C)C)n(C)c(=O)c2s1`, for which the IC50 result on PEG-3 [1] is “inactive”. Further, the IC50 with PEG-3 [2] (setting [3]) was 30.9 µM; in the test on PEG-3 [2] (setting [4]), 59.5 µM.
`N=c1n(CCN2CCCC2)c2ccccc2n1CC(O)c1ccc(Cl)c(Cl)c1` (stereo unspecified): the IC50 on PEG-3 [1] was 13.4 µM; in the test on PEG-3 [2] (setting [3]), 17.7 µM; in the test on PEG-3 [2] (setting [4]), 9.03 µM.
Regarding `Cc1cc(C)c2c(N)c3ccccc3nc2n1`, on PEG-3 [1], the IC50 result was “inactive”. The IC50 with PEG-3 [2] (setting [3]) is 18.5 µM; in the test with PEG-3 [2] (setting [4]), more than 100 µM.
On to `COc1ccccc1NC(=S)NC1CCCCCCCCCCC1`, for which the IC50 result at PEG-3 [1] was “inactive”. Besides, the IC50 was determined as 31.2 µM with PEG-3 [2] (setting [3]) and 42.3 µM in the test with PEG-3 [2] (setting [4]).
As for `O=C(Nc1cccc(S(=O)(=O)N2CCOCC2)c1)c1ccc2c(=O)n3c(nc2c1)CCCCC3`, on PEG-3 [1], the IC50 entry is “inactive”. Besides, the results for the IC50 in the test on PEG-3 [2] (setting [3]) and in the test with PEG-3 [2] (setting [4]) were 25.3 µM and 43.1 µM, respectively.
With `CN(C)CCCN1c2ccccc2Sc2ccc3ccccc3c21`, the results for the IC50 at PEG-3 [1], in the test with PEG-3 [2] (setting [3]) and with PEG-3 [2] (setting [4]) were 16.9 µM, 17.7 µM and 16 µM, respectively.
Regarding `Cc1ccccc1NC(=O)C(=Cc1ccc(C(=O)O)cc1)C(=O)Nc1ccccc1C`, the IC50 entry at PEG-3 [1] is “inactive”. For the same compound, the IC50 amounted to 37.3 µM with PEG-3 [2] (setting [3]) and 74.4 µM with PEG-3 [2] (setting [4]).
Regarding `CCN(CC)CCNc1cccc2sc3ccccc3c(=O)c12`, the IC50 result at PEG-3 [1] was “inactive”. Besides, the results for the IC50 in the test with PEG-3 [2] (setting [3]) and in the test with PEG-3 [2] (setting [4]) were 18.3 µM and 25.6 µM, respectively.
`N/C(=N\OC(=O)c1ccccc1)C(Cc1ccccc1)C(=O)NOC(=O)c1ccccc1` (stereo unspecified): the figures for the IC50 at PEG-3 [1], in the test with PEG-3 [2] (setting [3]) and in the test on PEG-3 [2] (setting [4]) were 13 µM, 15 µM and 11 µM, respectively.
As to `COc1ccc(-c2nc(NC(=O)c3n[nH]c(=O)c4ccccc34)sc2C)cc1`, the IC50 entry at PEG-3 [1] was “inactive”. The values for the IC50 in the test with PEG-3 [2] (setting [3]) and with PEG-3 [2] (setting [4]) were 0.904 µM and more than 100 µM, respectively.
For the compound `COc1cc(/C=C/c2ccc3cccc(O)c3n2)ccc1O`, the IC50 on PEG-3 [1] was > 100 µM (inactive); with PEG-3 [2] (setting [3]) it was more than 100 µM; with PEG-3 [2] (setting [4]), more than 100 µM.
Turning to `O=C(Sc1cccc2cccnc12)c1ccccc1Br`, the 50% inhibitory concentration (IC50) on PEG-3 [1] was 13.4 µM; with PEG-3 [2] (setting [3]), 14 µM; with PEG-3 [2] (setting [4]) it was 12.9 µM.
The like results for `O=C1N[C@@H](c2ccccc2)COC(=O)[C@@H](Cc2ccc(F)cc2)CC/C=C/C[C@H]1CC(=O)N(CCO)Cc1ccccc1` were, in that order, “inactive”, 41 µM and more than 100 µM.
Take `O=C(CCCN1C(=O)/C(=C/c2ccccc2Cl)SC1=S)NNC(=O)c1ccccc1Cl`: the IC50 result at PEG-3 [1] is “inactive”. Besides, the IC50 in the test with PEG-3 [2] (setting [3]) was 26.4 µM; in the test with PEG-3 [2] (setting [4]) it was 22 µM.
Turning to `COc1ccc(-c2nc3c(C(=O)NCCN(C)C)cccc3c3ccccc23)cc1`, the results for the IC50 on PEG-3 [1], with PEG-3 [2] (setting [3]) and in the test on PEG-3 [2] (setting [4]) were 15 µM, 17.3 µM and 12.8 µM, respectively.
The like results for `Cc1cc(C(=O)COC(=O)c2ccccc2Br)c(C)n1CC1CCCO1` (stereo unspecified) were, in that order, “inactive”, 3.07 µM and 98.5 µM.
In the case of `CN(C)c1ccc(/C=N/NC(=O)c2nnn(-c3nonc3N)c2COc2ccc(F)cc2)cc1`, the IC50 at PEG-3 [1] is > 100 µM (inactive); with PEG-3 [2] (setting [3]), more than 100 µM; in the test with PEG-3 [2] (setting [4]), more than 100 µM.
As for `CN(C)S(=O)(=O)c1cccc(NC(=O)CSc2cccc3cccnc23)c1`, the IC50 result on PEG-3 [1] was “inactive”. The values for the IC50 with PEG-3 [2] (setting [3]) and in the test with PEG-3 [2] (setting [4]) were 23.7 µM and 19.6 µM, respectively.
The like results for `CCCCCCC=C1CCC(CN2CCCC2)C1=O` (stereo unspecified) were, in that order, “inactive”, 35.6 µM and 29.6 µM.
In the case of `CN(C)CCNC(=O)/C(=C/c1ccc(-c2ccc(Cl)cc2)o1)NC(=O)c1ccccc1`, the values for the IC50 on PEG-3 [1], in the test with PEG-3 [2] (setting [3]) and in the test with PEG-3 [2] (setting [4]) were 13.9 µM, 18.1 µM and 9.62 µM, respectively.
